Consider 36 compounds from patent US20170305893A1 (Thomas Helledays Stiftelse for Medicinsk Forskning, priority 2014, published 2017).

One experiment addresses T1, DCTPP1 (Homo sapiens, UniProt Q9H773).
T1 sequence (Q9H773 1-170): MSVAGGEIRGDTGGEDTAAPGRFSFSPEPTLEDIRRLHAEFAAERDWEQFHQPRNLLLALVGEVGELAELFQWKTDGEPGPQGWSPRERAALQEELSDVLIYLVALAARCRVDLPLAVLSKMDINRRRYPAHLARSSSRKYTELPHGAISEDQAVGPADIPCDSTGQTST
Description: DCTPP1 inhibition assay (malachite green). The conditions noted are these: 35 nM DCTPP1, 35 μM dCTP, 20 minutes at 22° C.; read-out: IC50. Type of experiment: biochemical. The method, then: DCTPP1 catalyzes the hydrolysis of dCTP to dCMP and PPi. By coupling the reaction to pyrophosphatase added in excess PPi is converted to Pi that can be detected by using the malachite green assay reagent. […] DCTPP1 diluted in assay buffer (100 mM Tris-acetate, 100 mM KCl, 10 mM magnesium acetate, 1 mM DTT and 0.005% Tween 20) fortified with E. coli pyrophosphatase (0.2 U/mL) is added to a final concentration of 35 nM. dCTP diluted in assay buffer is added to a final concentration of 35 μM. The reaction mixture is incubated with shaking for 20 minutes at 22° C. To 100 μl reaction mixture is added […] Malachite green assay reagent (0.095% Malachite green in 17% H2SO4, 1.5% Ammonium molybdate, 0.17% Tween 20) added followed by incubation with shaking for 15 minutes at 22° C. The absorbance of the assay plate is read at 630 nm using a SpectraMax plate reader (Molecular Devices).
On to “5,6-dichloro-2-methyl-4-nitro-1-(4-(trifluoro-l4-boranyl)benzyl)-1H-benzo[d]imidazole [Compound 2.2.48]”, for which the IC50 (as a rule, the midpoint of a concentration-inhibition curve) was 39 nM. With `O=[N+]([O-])c1cccc2c1nc(C(F)(F)F)n2Cc1ccc(B(O)O)cc1` [Compound 2.2.8, (4-((4-nitro-2-(trifluoromethyl)-1H-benzo[d]imidazol-1-yl)methyl)phenyl)boronic acid], the IC50 turned out to be 206 nM.

`Cc1nc2c([N+](=O)[O-])c(F)c(F)cc2n1Cc1ccccc1` [Compound 2.2.10, 1-benzyl-5,6-difluoro-2-methyl-4-nitro-1H-benzo[d]imidazole]: the IC50 came out at 410 nM. In the case of `Cc1nc2c([N+](=O)[O-])c(Cl)c(Cl)cc2n1S(=O)(=O)c1ccccc1` [Compound 2.2.17, 5,6-dichloro-2-methyl-4-nitro-1-(phenylsulfonyl)-1H-benzo[d]imidazole], the IC50 was 74 nM.

With `COc1ccc(Cn2c(C)nc3c([N+](=O)[O-])c(Cl)c(Cl)cc32)cc1` [Compound 2.2.20, 5,6-dichloro-1-(4-methoxybenzyl)-2-methyl-4-nitro-1H-benzo[d]imidazole], the IC50 worked out at 41 nM.

The experiment is the same for the next values; noted with them: 35 nM DCTPP1, 35 μM dCTP, 20 minutes at 22° C.; read-out: IC50 (nM), class.
Take “1-(4-methoxybenzyl)-4-nitro-1H-benzo[d]imidazole [Compound 2.2.62]”: the concentration for half-maximal inhibition (IC50) was at least 1000 nM.

Turning to “5,6-dichloro-2-methyl-4-nitro-1-(4-(trifluoro-l4-boranyl)benzyl)-1H-benzo[d]imidazole [Compound 2.2.48]”, the IC50 is below 100 nM. In the case of `COc1ccc(Cn2c(C)nc3c([N+](=O)[O-])cccc32)cc1` [Compound 2.2.1, 1-(4-methoxybenzyl)-2-methyl-4-nitro-1H-benzo[d]imidazole], the IC50 was at least 1000 nM. Turning to `COc1ccc(Cn2c(-c3ccccc3)nc3c([N+](=O)[O-])cccc32)cc1` [Compound 2.2.2, 1-(4-methoxybenzyl)-4-nitro-2-phenyl-1H-benzo[d]imidazole], the IC50 was at least 1000 nM.

In the case of `COc1ccc(Cn2c(Cc3ccccc3)nc3c([N+](=O)[O-])cccc32)cc1` [Compound 2.2.3, 2-benzyl-1-(4-methoxybenzyl)-4-nitro-1H-benzo[d]imidazole], the IC50 is at least 1000 nM.

As for `COc1ccc(Cn2c(C(F)(F)F)nc3c([N+](=O)[O-])cccc32)cc1` [Compound 2.2.4, 1-(4-methoxybenzyl)-4-nitro-2-(trifluoromethyl)-1H-benzo[d]imidazole], the IC50 was at least 1000 nM. With `COc1ccc(Cn2c(OC)nc3c([N+](=O)[O-])cccc32)cc1` [Compound 2.2.5, 2-methoxy-1-(4-methoxybenzyl)-4-nitro-1H-benzo[d]imidazole], the IC50 was at least 1000 nM. In the case of `COCc1nc2c([N+](=O)[O-])cccc2n1Cc1ccc(OC)cc1` [Compound 2.2.6, 1-(4-methoxybenzyl)-2-(methoxymethyl)-4-nitro-1H-benzo[d]imidazole], the IC50 is at least 1000 nM. Take `COc1ccc(Cn2c(C(C)C)nc3c([N+](=O)[O-])cccc32)cc1` [Compound 2.2.7, 2-isopropyl-1-(4-methoxybenzyl)-4-nitro-1H-benzo[d]imidazole]: the IC50 is at least 1000 nM. Consider `O=[N+]([O-])c1cccc2c1nc(C(F)(F)F)n2Cc1ccc(B(O)O)cc1` [Compound 2.2.8, (4-((4-nitro-2-(trifluoromethyl)-1H-benzo[d]imidazol-1-yl)methyl)phenyl)boronic acid], for which the IC50 fell in the range of 100 to 500 nM. With `Cc1nc2c([N+](=O)[O-])c(F)c(F)cc2n1Cc1ccc(C#N)cc1` [Compound 2.2.11, 4-((5,6-difluoro-2-methyl-4-nitro-1H-benzo[d]imidazol-1-yl)methyl)benzonitrile], the IC50 was at least 1000 nM. For the compound `Cc1nc2c([N+](=O)[O-])c(F)c(F)cc2n1Cc1ccc(F)cc1` [Compound 2.2.12, 5,6-difluoro-1-(4-fluorobenzyl)-2-methyl-4-nitro-1H-benzo[d]imidazole], the half-inhibitory concentration (IC50) lay in the range of 500 to 1000 nM. In the case of `Cc1nc2c([N+](=O)[O-])c(F)c(F)cc2n1Cc1ccc(-n2cncn2)cc1` [Compound 2.2.13, 1-(4-(1H-1,2,4-triazol-1-yl)benzyl)-5,6-difluoro-2-methyl-4-nitro-1H-benzo[d]imidazole], the IC50 is at least 1000 nM.

For the compound `Cc1nc2c([N+](=O)[O-])c(F)c(F)cc2n1C(C)c1ccccc1` (stereo not shown) [Compound 2.2.14, 5,6-difluoro-2-methyl-4-nitro-1-(1-phenylethyl)-1H-benzo[d]imidazole], the half-inhibitory concentration (IC50) is at least 1000 nM. Consider `Cc1nc2c([N+](=O)[O-])c(F)c(F)cc2n1Cc1ccc(B(O)O)cc1` [Compound 2.2.15, (4-((5,6-difluoro-2-methyl-4-nitro-1H-benzo[d]imidazol-1-yl)methyl)phenyl)boronic acid], for which the IC50 was 500 to 1000 nM.

Regarding `Cc1nc2c([N+](=O)[O-])c(Cl)c(Cl)cc2n1-c1ccccc1` [Compound 2.2.16, 5,6-dichloro-2-methyl-4-nitro-1-phenyl-1H-benzo[d]imidazole], the IC50 was below 100 nM. `Cc1nc2c([N+](=O)[O-])c(Cl)c(Cl)cc2n1S(=O)(=O)c1ccccc1` [Compound 2.2.17, 5,6-dichloro-2-methyl-4-nitro-1-(phenylsulfonyl)-1H-benzo[d]imidazole]: the IC50 was below 100 nM. Take `Cc1nc2c([N+](=O)[O-])c(Cl)c(Cl)cc2n1C(=O)c1ccccc1` [Compound 2.2.18, (5,6-dichloro-2-methyl-4-nitro-1H-benzo[d]imidazol-1-yl)(phenyl)methanone]: the 50% inhibitory concentration (IC50) was in the range of 100 to 500 nM. The same measure, in the same setting: the same measure for `Cc1nc2c([N+](=O)[O-])c(Cl)c(Cl)cc2n1Cc1ccccc1` [Compound 2.2.19, 1-benzyl-5,6-dichloro-2-methyl-4-nitro-1H-benzo[d]imidazole]: below 100 nM. On to `COc1ccc(Cn2c(C)nc3c([N+](=O)[O-])c(Cl)c(Cl)cc32)cc1` [Compound 2.2.20, 5,6-dichloro-1-(4-methoxybenzyl)-2-methyl-4-nitro-1H-benzo[d]imidazole], for which the IC50 is below 100 nM. On the same count and under the same terms, the figure for `COc1cccc(Cn2c(C)nc3c([N+](=O)[O-])c(Cl)c(Cl)cc32)c1` [Compound 2.2.21, 5,6-dichloro-1-(3-methoxybenzyl)-2-methyl-4-nitro-1H-benzo[d]imidazole] is 100 to 500 nM; for `CC(=O)Oc1ccc(Cn2c(C)nc3c([N+](=O)[O-])c(Cl)c(Cl)cc32)cc1` [Compound 2.2.22, 4-((5,6-dichloro-2-methyl-4-nitro-1H-benzo[d]imidazol-1-yl)methyl)phenyl acetate] it is below 100 nM. Regarding `Cc1nc2c([N+](=O)[O-])c(Cl)c(Cl)cc2n1Cc1ccc(O)cc1` [Compound 2.2.25, 4-((5,6-dichloro-2-methyl-4-nitro-1H-benzo[d]imidazol-1-yl)methyl)phenol], the IC50 was below 100 nM. Turning to `Cc1ccc(Cn2c(C)nc3c([N+](=O)[O-])c(Cl)c(Cl)cc32)cc1` [Compound 2.2.26, 5,6-dichloro-2-methyl-1-(4-methylbenzyl)-4-nitro-1H-benzo[d]imidazole], the IC50 was below 100 nM. For `Cc1nc2c([N+](=O)[O-])c(Cl)c(Cl)cc2n1Cc1ccc(C=O)cc1` [Compound 2.2.27, 4-((5,6-dichloro-2-methyl-4-nitro-1H-benzo[d]imidazol-1-yl)methyl)benzaldehyde], the IC50 was in the range of 100 to 500 nM. On to `Cc1nc2c([N+](=O)[O-])c(Cl)c(Cl)cc2n1Cc1ccc(C=NO)cc1` [Compound 2.2.28, 4-((5,6-dichloro-2-methyl-4-nitro-1H-benzo[d]imidazol-1-yl)methyl)benzaldehyde oxime], for which the IC50 was below 100 nM. With `C=CC(=O)c1ccc(Cn2c(C)nc3c([N+](=O)[O-])c(Cl)c(Cl)cc32)cc1` [Compound 2.2.30, 1-(4-((5,6-dichloro-2-methyl-4-nitro-1H-benzo[d]imidazol-1-yl)methyl)phenyl)prop-2-en-1-one], the IC50 was below 100 nM. As to `C=CC(=O)Nc1ccc(Cn2c(C)nc3c([N+](=O)[O-])c(Cl)c(Cl)cc32)cc1` [Compound 2.2.32, N-(4-((5,6-dichloro-2-methyl-4-nitro-1H-benzo[d]imidazol-1-yl)methyl)phenyl)acrylamide], the IC50 is below 100 nM.

For `Cc1n[nH]c(C)c1CCn1c(C)nc2c([N+](=O)[O-])c(Cl)c(Cl)cc21` [Compound 2.2.33, 5,6-dichloro-1-(2-(3,5-dimethyl-1H-pyrazol-4-yl)ethyl)-2-methyl-4-nitro-1H-benzo[d]imidazole], the IC50 was 100 to 500 nM. Still for that read-out and setting: the same measure for `Cc1nc2c([N+](=O)[O-])c(Cl)c(Cl)cc2n1Cc1ccc(-n2cccn2)cc1` [Compound 2.2.34, 1-(4-(1H-pyrazol-1-yl)benzyl)-5,6-dichloro-2-methyl-4-nitro-1H-benzo[d]imidazole]: below 100 nM; for `Cc1nc2c([N+](=O)[O-])c(Cl)c(Cl)cc2n1Cc1ccc(-n2cncn2)cc1` [Compound 2.2.35, 1-(4-(1H-1,2,4-triazol-1-yl)benzyl)-5,6-dichloro-2-methyl-4-nitro-1H-benzo[d]imidazole]: 500 to 1000 nM. Same read-out and setting: the figure for `Cc1nc2c([N+](=O)[O-])c(Cl)c(Cl)cc2n1Cc1ccc(C(=O)O)cc1` [Compound 2.2.37, 4-((5,6-dichloro-2-methyl-4-nitro-1H-benzo[d]imidazol-1-yl)methyl)benzoic acid] is below 100 nM. Consider `COC(=O)c1ccc(Cn2c(C)nc3c([N+](=O)[O-])c(Cl)c(Cl)cc32)cc1` [Compound 2.2.38, methyl 4-((5,6-dichloro-2-methyl-4-nitro-1H-benzo[d]imidazol-1-yl)methyl)benzoate], for which the IC50 was in the range of 100 to 500 nM. For the compound `Cc1nc2c([N+](=O)[O-])c(Cl)c(Cl)cc2n1Cc1ccc(C(N)=O)cc1` [Compound 2.2.39, 4-((5,6-dichloro-2-methyl-4-nitro-1H-benzo[d]imidazol-1-yl)methyl)benzamide], the IC50 was below 100 nM. With `Cc1nc2c([N+](=O)[O-])c(Cl)c(Cl)cc2n1Cc1ccc(C#N)cc1` [Compound 2.2.40, 4-((5,6-dichloro-2-methyl-4-nitro-1H-benzo[d]imidazol-1-yl)methyl)benzonitrile], the concentration for half-maximal inhibition (IC50) is 100 to 500 nM.
